Measured values as given in ChEMBL document CHEMBL3885881, “DrugMatrix”.

Organism: Rattus norvegicus
Assay: DrugMatrix - Regimen: Daily Repeat
Format: toxicity, organism-based, Sprague-Dawley
Set-up: regimen Daily Repeat, gender Male, age 6-8 weeks
Details: in vivo, po, route oral GAVAGE, vehicle .5 % CMC; for ABSOLUTE BASOPHIL / ABSOLUTE EOSINOPHIL / ABSOLUTE LYMPHOCYTE / ABSOLUTE MONOCYTE / ABSOLUTE SEGMENTED NEUTROPHIL / BASOPHIL / EOSINOPHIL / ERYTHROCYTE COUNT / HEMATOCRIT / HEMOGLOBIN / LEUKOCYTE COUNT / LYMPHOCYTE / MEAN CORPUSCULAR HEMOGLOBIN / MEAN CORPUSCULAR HEMOGLOBIN CONCENTRATION / MEAN CORPUSCULAR VOLUME / MONOCYTE / NEUTROPHIL / NUCLEATED RED BLOOD CELLS / PLATELET COUNT: tissue Blood; for ALANINE AMINOTRANSFERASE / ALBUMIN / ALKALINE PHOSPHATASE / ASPARTATE AMINOTRANSFERASE / BLOOD UREA NITROGEN / CARBON DIOXIDE / CHLORIDE / CHOLESTEROL / CREATINE PHOSPHOKINASE / CREATININE / GLUCOSE / LACTATE DEHYDROGENASE / LIPASE / PHOSPHORUS / POTASSIUM / SODIUM / TOTAL BILIRUBIN / TOTAL PROTEIN / URIC ACID: tissue Plasma
[1] = 200 mg/kg, 72 h, dose level Low, time 3 day
[2] = 200 mg/kg, 120 h, dose level Low, time 5 day
[3] = 1000 mg/kg, 72 h, dose level High, time 3 day
[4] = 1000 mg/kg, 120 h, dose level High, time 5 day

c1ccc(Nc2ccc(Nc3ccccc3)cc2)cc1
ABSOLUTE BASOPHIL [1]: 0 CELLS/uL | ABSOLUTE EOSINOPHIL [1]: 237 CELLS/uL | ABSOLUTE LYMPHOCYTE [1]: 13213.33 CELLS/uL | ABSOLUTE MONOCYTE [1]: 291.33 CELLS/uL | ABSOLUTE SEGMENTED NEUTROPHIL [1]: 1225 CELLS/uL | BASOPHIL [1]: 0% | EOSINOPHIL [1]: 1.67% | ERYTHROCYTE COUNT [1]: 5.4 x10E6/uL | HEMATOCRIT [1]: 33.57% | HEMOGLOBIN [1]: 12.87 G/DL | LEUKOCYTE COUNT [1]: 14.97 x10E3/uL | LYMPHOCYTE [1]: 88% | MEAN CORPUSCULAR HEMOGLOBIN [1]: 23.83 pg | MEAN CORPUSCULAR HEMOGLOBIN CONCENTRATION [1]: 38.33 G/DL | MEAN CORPUSCULAR VOLUME [1]: 62.2 fL | MONOCYTE [1]: 2% | NEUTROPHIL [1]: 8.33% | NUCLEATED RED BLOOD CELLS [1]: 0 /100WBC | PLATELET COUNT [1]: 1471 x10E3/uL | ALANINE AMINOTRANSFERASE [1]: 46.67 u/L | ALBUMIN [1]: 4.2 G/DL | ALKALINE PHOSPHATASE [1]: 353.67 u/L | ASPARTATE AMINOTRANSFERASE [1]: 106.33 u/L | BLOOD UREA NITROGEN [1]: 15 mg/dL | CARBON DIOXIDE [1]: 22 mmol/L | CHLORIDE [1]: 105.33 MEQ/L | CHOLESTEROL [1]: 67 mg/dL | CREATINE PHOSPHOKINASE [1]: 1002.33 u/L | CREATININE [1]: 0.23 mg/dL | GLUCOSE [1]: 178.33 mg/dL | LACTATE DEHYDROGENASE [1]: 537.67 u/L | LIPASE [1]: 9.33 u/L | PHOSPHORUS [1]: 12.7 mg/dL | POTASSIUM [1]: 6.26 MEQ/L | SODIUM [1]: 143.9 MEQ/L | TOTAL BILIRUBIN [1]: 0.23 mg/dL | TOTAL PROTEIN [1]: 5.57 G/DL | URIC ACID [1]: 1.87 mg/dL | ABSOLUTE BASOPHIL [2]: 0 CELLS/uL | ABSOLUTE EOSINOPHIL [2]: 45 CELLS/uL | ABSOLUTE LYMPHOCYTE [2]: 13082 CELLS/uL | ABSOLUTE MONOCYTE [2]: 237 CELLS/uL | ABSOLUTE SEGMENTED NEUTROPHIL [2]: 736 CELLS/uL | BASOPHIL [2]: 0% | EOSINOPHIL [2]: 0.33% | ERYTHROCYTE COUNT [2]: 5.63 x10E6/uL | HEMATOCRIT [2]: 36.07% | HEMOGLOBIN [2]: 13.67 G/DL | LEUKOCYTE COUNT [2]: 14.1 x10E3/uL | LYMPHOCYTE [2]: 92.67% | MEAN CORPUSCULAR HEMOGLOBIN [2]: 24.23 pg | MEAN CORPUSCULAR HEMOGLOBIN CONCENTRATION [2]: 37.93 G/DL | MEAN CORPUSCULAR VOLUME [2]: 63.97 fL | MONOCYTE [2]: 1.67% | NEUTROPHIL [2]: 5.33% | NUCLEATED RED BLOOD CELLS [2]: 0.33 /100WBC | PLATELET COUNT [2]: 1272.33 x10E3/uL | ALANINE AMINOTRANSFERASE [2]: 46 u/L | ALBUMIN [2]: 4.23 G/DL | ALKALINE PHOSPHATASE [2]: 349 u/L | ASPARTATE AMINOTRANSFERASE [2]: 77.67 u/L | BLOOD UREA NITROGEN [2]: 17 mg/dL | CARBON DIOXIDE [2]: 28 mmol/L | CHLORIDE [2]: 105.67 MEQ/L | CHOLESTEROL [2]: 70.67 mg/dL | CREATINE PHOSPHOKINASE [2]: 230.33 u/L | CREATININE [2]: 0.24 mg/dL | GLUCOSE [2]: 178 mg/dL | LACTATE DEHYDROGENASE [2]: 121.33 u/L | LIPASE [2]: 8.67 u/L | PHOSPHORUS [2]: 12.4 mg/dL | POTASSIUM [2]: 6.76 MEQ/L | SODIUM [2]: 148.13 MEQ/L | TOTAL BILIRUBIN [2]: 0.23 mg/dL | TOTAL PROTEIN [2]: 5.83 G/DL | URIC ACID [2]: 2 mg/dL | ABSOLUTE BASOPHIL [3]: 0 CELLS/uL | ABSOLUTE EOSINOPHIL [3]: 52.33 CELLS/uL | ABSOLUTE LYMPHOCYTE [3]: 13944 CELLS/uL | ABSOLUTE MONOCYTE [3]: 300.33 CELLS/uL | ABSOLUTE SEGMENTED NEUTROPHIL [3]: 1236.67 CELLS/uL | BASOPHIL [3]: 0% | EOSINOPHIL [3]: 0.33% | ERYTHROCYTE COUNT [3]: 5.47 x10E6/uL | HEMATOCRIT [3]: 34.97% | HEMOGLOBIN [3]: 13.1 G/DL | LEUKOCYTE COUNT [3]: 15.53 x10E3/uL | LYMPHOCYTE [3]: 89.67% | MEAN CORPUSCULAR HEMOGLOBIN [3]: 23.97 pg | MEAN CORPUSCULAR HEMOGLOBIN CONCENTRATION [3]: 37.47 G/DL | MEAN CORPUSCULAR VOLUME [3]: 63.93 fL | MONOCYTE [3]: 2% | NEUTROPHIL [3]: 8% | NUCLEATED RED BLOOD CELLS [3]: 0 /100WBC | PLATELET COUNT [3]: 1345 x10E3/uL | ALANINE AMINOTRANSFERASE [3]: 40 u/L | ALBUMIN [3]: 4.3 G/DL | ALKALINE PHOSPHATASE [3]: 405.33 u/L | ASPARTATE AMINOTRANSFERASE [3]: 83 u/L | BLOOD UREA NITROGEN [3]: 18.33 mg/dL | CARBON DIOXIDE [3]: 26.33 mmol/L | CHLORIDE [3]: 102.33 MEQ/L | CHOLESTEROL [3]: 78.33 mg/dL | CREATINE PHOSPHOKINASE [3]: 324.33 u/L | CREATININE [3]: 0.21 mg/dL | GLUCOSE [3]: 155.67 mg/dL | LACTATE DEHYDROGENASE [3]: 398 u/L | LIPASE [3]: 8.67 u/L | PHOSPHORUS [3]: 12.6 mg/dL | POTASSIUM [3]: 7.38 MEQ/L | SODIUM [3]: 144.77 MEQ/L | TOTAL BILIRUBIN [3]: 0.33 mg/dL | TOTAL PROTEIN [3]: 5.8 G/DL | URIC ACID [3]: 1.47 mg/dL | ABSOLUTE BASOPHIL [4]: 0 CELLS/uL | ABSOLUTE EOSINOPHIL [4]: 50 CELLS/uL | ABSOLUTE LYMPHOCYTE [4]: 13072 CELLS/uL | ABSOLUTE MONOCYTE [4]: 337.33 CELLS/uL | ABSOLUTE SEGMENTED NEUTROPHIL [4]: 907.33 CELLS/uL | BASOPHIL [4]: 0% | EOSINOPHIL [4]: 0.33% | ERYTHROCYTE COUNT [4]: 5.47 x10E6/uL | HEMATOCRIT [4]: 35.47% | HEMOGLOBIN [4]: 13.47 G/DL | LEUKOCYTE COUNT [4]: 14.37 x10E3/uL | LYMPHOCYTE [4]: 91% | MEAN CORPUSCULAR HEMOGLOBIN [4]: 24.77 pg | MEAN CORPUSCULAR HEMOGLOBIN CONCENTRATION [4]: 37.97 G/DL | MEAN CORPUSCULAR VOLUME [4]: 65.07 fL | MONOCYTE [4]: 2.33% | NEUTROPHIL [4]: 6.33% | NUCLEATED RED BLOOD CELLS [4]: 0 /100WBC | PLATELET COUNT [4]: 1396.67 x10E3/uL | ALANINE AMINOTRANSFERASE [4]: 42.33 u/L | ALBUMIN [4]: 4.23 G/DL | ALKALINE PHOSPHATASE [4]: 316.67 u/L | ASPARTATE AMINOTRANSFERASE [4]: 67 u/L | BLOOD UREA NITROGEN [4]: 16.33 mg/dL | CARBON DIOXIDE [4]: 29 mmol/L | CHLORIDE [4]: 105.67 MEQ/L | CHOLESTEROL [4]: 69.33 mg/dL | CREATINE PHOSPHOKINASE [4]: 202.33 u/L | CREATININE [4]: 0.25 mg/dL | GLUCOSE [4]: 159 mg/dL | LACTATE DEHYDROGENASE [4]: 84.33 u/L | LIPASE [4]: 9 u/L | PHOSPHORUS [4]: 12.27 mg/dL | POTASSIUM [4]: 6.19 MEQ/L | SODIUM [4]: 146.97 MEQ/L | TOTAL BILIRUBIN [4]: 0.33 mg/dL | TOTAL PROTEIN [4]: 5.83 G/DL | URIC ACID [4]: 1.73 mg/dL
